Test results taken from patent US20060063782A1, “3-Hetero arylmethoxy ! pyridines and their analogues as p38 map kinase inhibitors” (priority 2002, published 2006).

Target: p38 MAP kinase (Homo sapiens, UniProt Q16539)
Test: p38 MAP Kinase Assay (33P incorporation into myelin basic protein, filter plate)
Format: biochemical
Conditions: Table 2; MKK6-activated p38, MBP substrate, 50 minutes
Procedure: The activated p38 is then diluted 1:6 with assay buffer, and 20 μl mixed with 25 μl of MBP mix (300 μl 10×strength assay buffer, 300 μl of 10 mM DTT & 10 mM sodium orthovanadate, 1.7 ml H2O, 50 μCi γ^33P-ATP, 200 μl of myelin basic protein (MBP) (5 mg/ml)) and added to 96 well plates along with 5 μl of various dilutions of the test compound in DMSO (up to 10%). The reaction is allowed to proceed for 50 minutes before being stopped with an excess of ortho-phosphoric acid (30 μl at 2%).
γ^33P-ATP which remains unincorporated into the myelin basic protein is separated from phosphorylated MBP on a Millipore MAPH filter plate. The wells of the MAPH plate are wetted with 0.5% orthophosphoric acid, and then the results of the reaction are filtered with a Millipore vacuum filtration unit through the wells. Following filtration, the residue is washed twice with 200 μl of 0.5% orthophosphoric acid. Once the filters have dried, 25 μl of Microscint 20 scintillant is added, and then counted on a Packard Topcount for 30 seconds.

p38 MAP kinase, sequence (Q16539 whole entry): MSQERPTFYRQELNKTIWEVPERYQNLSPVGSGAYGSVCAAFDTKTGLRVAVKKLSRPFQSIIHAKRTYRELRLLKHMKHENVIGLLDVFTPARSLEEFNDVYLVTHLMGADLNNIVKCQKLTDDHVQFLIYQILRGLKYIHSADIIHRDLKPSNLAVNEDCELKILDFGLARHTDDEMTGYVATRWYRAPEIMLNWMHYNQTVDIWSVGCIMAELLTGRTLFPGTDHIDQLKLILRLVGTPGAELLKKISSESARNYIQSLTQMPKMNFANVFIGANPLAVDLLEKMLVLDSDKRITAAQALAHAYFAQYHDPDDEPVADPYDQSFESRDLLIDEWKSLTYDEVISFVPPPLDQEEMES

Structure (SMILES) | IC50 [µM]
O=C(Nc1ccc(F)c(COc2cnccn2)c1)c1nnc(-c2ccccc2)o1 [Compound 126, 5-Phenyl-[1,3,4]oxadiazole-2-carboxylic acid [4-fluoro-3-(pyrazin-2-yloxymethyl)-phenyl]-amide] | < 2
CC(C)(C)c1cc(NC(=O)Nc2ccc(F)c(COc3cnccn3)c2)n(-c2ccc(Cl)cc2)n1 [Compound 127, 1-[5-tert-Butyl-2-(4-chloro-phenyl)-2H-pyrazol-3-yl]-3-[4-fluoro-3-(pyrazin-2-yloxymethyl)-phenyl]-urea] | < 2
O=C(Nc1ccc(F)c(COc2cnccn2)c1)Nc1cc(-c2ccc(Cl)cc2)nn1-c1ccccc1 [Compound 128, 1-[5-(4-Chloro-phenyl)-2-phenyl-2H-pyrazol-3-yl]-3-[4-fluoro-3-(pyrazin-2-yloxymethyl)-phenyl]-urea] | < 2
CC(C)(C)n1nc(-c2ccccc2)cc1NC(=O)Nc1ccc(F)c(COc2cnccn2)c1 [Compound 129] | < 20
Cc1ccc(-n2nc(C(C)(C)C)cc2NC(=O)Nc2ccc(F)c(COc3cnccn3)c2)cc1 [Compound 130, 1-(5-tert-Butyl-2-p-tolyl-2H-pyrazol-3-yl)-3-[4-fluoro-3-(pyrazin-2-yloxymethyl)-phenyl]-urea] | < 2
O=C(Nc1ccc(F)c(COc2cnccn2)c1)c1ccc2ccccc2c1 [Compound 131, Naphthalene-2-carboxylic acid [4-fluoro-3-(pyrazin-2-yloxymethyl)-phenyl]-amide] | < 20
O=C(Nc1ccc(F)c(COc2cnccn2)c1)Nc1cc(-c2ccc(Cl)cc2)nn1-c1ccc(F)cc1 [Compound 132, 1-[5-(4-Chloro-phenyl)-2-(4-fluoro-phenyl)-2H-pyrazol-3-yl]-3-[4-fluoro-3-(pyrazin-2-yloxymethyl)-phenyl]-urea] | < 2
O=C(Nc1ccc(F)c(COc2cnccn2)c1)c1ccc(-c2ccccc2)cc1 [Compound 133, Biphenyl-4-carboxylic acid [4-fluoro-3-(pyrazin-2-yloxymethyl)-phenyl]-amide] | < 200
O=C(Nc1ccc(F)c(COc2cnccn2)c1)Nc1cc(-c2ccccc2)nn1-c1ccccc1 [Compound 134, 1-(2,5-Diphenyl-2H-pyrazol-3-yl)-3-[4-fluoro-3-(pyrazin-2-yloxymethyl)-phenyl]-urea] | < 2
CC(C)(C)c1cc(C(=O)Nc2ccc(F)c(COc3cnccn3)c2)n(Cc2ccccc2)n1 [Compound 135, 2-Benzyl-5-tert-butyl-2H-pyrazole-3-carboxylic acid [4-fluoro-3-(pyrazin-2-yloxymethyl)-phenyl]-amide] | < 20
CC(C)(C)c1cc(C(=O)Nc2ccc(F)c(COc3cnccn3)c2)n(Cc2ccc(F)cc2)n1 [Compound 136, 5-tert-Butyl-2-(4-fluoro-benzyl)-2H-pyrazole-3-carboxylic acid [4-fluoro-3-(pyrazin-2-yloxymethyl)-phenyl]-amide] | < 20
CC(CO)(CO)NC(=O)c1cnc(OCc2c(Cl)cccc2Cl)cn1 [Compound 137, 5-(2,6-Dichloro-benzyloxy)-pyrazine-2-carboxylic acid (2-hydroxy-1-hydroxymethyl-1-methyl-ethyl)-amide] | < 2
NS(=O)(=O)CCNC(=O)c1cnc(OCc2c(Cl)cccc2Cl)cn1 [Compound 138, 5-(2,6-dichloro-benzyloxy)-pyrazine-2-carboxylic acid (2-sulfamoyl-ethyl)-amide] | < 1000
CC(C)(Cc1ccncc1)NC(=O)c1cnc(OCc2c(Cl)cccc2Cl)cn1 [Compound 139, 5-(2,6-Dichloro-benzyloxy)-pyrazine-2-carboxylic acid (1,1-dimethyl-2-pyridin-4-yl-ethyl)-amide] | < 20
O=C(Nc1ccc(F)c(COc2cnccn2)c1)Nc1nnc(C2CCCO2)s1 (centres unmarked) [Compound 140, 1-[4-Fluoro-3-(pyrazin-2-yloxymethyl)-phenyl]-3-[5-(tetrahydro-furan-2-yl)-[1,3,4]thiadiazol-2-yl]-urea] | < 2
Clc1cccc(Cl)c1COc1cnc(NCc2ccccc2)cn1 [Compound 141, Benzyl-[5-(2,6-dichloro-benzyloxy)-pyrazin-2-yl]-amine] | < 20
CC(C)(C)c1cc(NC(=O)Oc2cccc(COc3cnccn3)c2)n(-c2ccccc2)n1 [Compound 142] | < 200
CC(C)(C)c1ccc2[nH]cc(CC(=O)Nc3ccc(F)c(COc4cnccn4)c3)c2c1 [Compound 143] | < 200
Cc1nc2sccn2c1C(=O)Nc1ccc(F)c(COc2cnccn2)c1 [Compound 144, 6-Methyl-imidazo[2,1-b]thiazole-5-carboxylic acid [4-fluoro-3-(pyrazin-2-yloxymethyl)-phenyl]-amide] | < 2

Structure (SMILES) | IC50 [µM]
C=CS(=O)(=O)Nc1cnc(OCc2c(Cl)cccc2Cl)cn1 [Compound 145] | < 200
CC(C)(C)c1cc(C(=O)Nc2ccc(F)c(COc3cnccn3)c2)cc(C(C)(C)C)c1 [Compound 146, 3,5-Di-tert-butyl-N-[4-fluoro-3-(pyrazin-2-yloxymethyl)-phenyl]-benzamide] | < 2
O=C(Nc1ccc(F)c(COc2cnccn2)c1)c1ccc(=O)n(Cc2ccccc2)c1 [Compound 147, 1-Benzyl-6-oxo-1,6-dihydro-pyridine-3-carboxylic acid [4-fluoro-3-(pyrazin-2-yloxymethyl)-phenyl]-amide] | < 20
CNc1cnc(OCc2c(Cl)cccc2Cl)cn1 [Compound 148, [5-(2,6-Dichloro-benzyloxy)-pyrazin-2-yl]-methyl-amine] | < 200
CSc1nnc(NC(=O)Nc2ccc(F)c(COc3cnccn3)c2)s1 [Compound 149, 1-[4-Fluoro-3-(pyrazin-2-yloxymethyl)-phenyl]-3-(5-methylsulfanyl-[1,3,4]thiadiazol-2-yl)-urea] | < 200
O=C(Nc1ccc(F)c(COc2cnccn2)c1)c1cc(N2CCOCC2)nc(N2CCOCC2)n1 [Compound 150, 2,6-Di-morpholin-4-yl-pyrimidine-4-carboxylic acid [4-fluoro-3-(pyrazin-2-yloxymethyl)-phenyl]-amide] | < 2
Cc1nc(-c2cccc(C(=O)Nc3ccc(F)c(COc4cnccn4)c3)c2)cs1 [Compound 151, N-[4-Fluoro-3-(pyrazin-2-yloxymethyl)-phenyl]-3-(2-methyl-thiazol-4-yl)-benzamide] | < 2
Clc1cccc(Cl)c1COc1cnc(N2CCOCC2)cn1 [Compound 152, 4-[5-(2,6-Dichloro-benzyloxy)-pyrazin-2-yl]-morpholine] | < 200
CC(C)(C)c1cc(NC(=O)Nc2ccc(F)c(COc3cnccn3)c2)n(Cc2ccccc2)n1 [Compound 153, 1-(2-Benzyl-5-tert-butyl-2H-pyrazol-3-yl)-3-[4-fluoro-3-(pyrazin-2-yloxymethyl)-phenyl]-urea] | < 2
CC(Nc1cnc(OCc2c(Cl)cccc2Cl)cn1)c1ccccc1 (centres unmarked) [Compound 154, [5-(2,6-Dichloro-benzyloxy)-pyrazin-2-yl]-(1-phenyl-ethyl)-amine] | < 20
CC(C)(C)c1cc(NC(=O)Nc2ccc(F)c(COc3cnccn3)c2)n(-c2nc3ccccc3s2)n1 [Compound 155, 1-(2-Benzothiazol-2-yl-5-tert-butyl-2H-pyrazol-3-yl)-3-[4-fluoro-3-(pyrazin-2-yloxymethyl)-phenyl]-urea] | < 20
CC(C)(C)c1cc(NC(=O)Nc2ccc(F)c(COc3cnccn3)c2)n(-c2ccc(Cl)nn2)n1 [Compound 156, 1-[5-tert-Butyl-2-(6-chloro-pyridazin-3-yl)-2H-pyrazol-3-yl]-3-[4-fluoro-3-(pyrazin-2-yloxymethyl)-phenyl]-urea] | < 2
Cc1cc(-n2nc(C(C)(C)C)cc2NC(=O)Nc2ccc(F)c(COc3cnccn3)c2)nc(C)n1 [Compound 157, 1-[5-tert-Butyl-2-(2,6-dimethyl-pyrimidin-4-yl)-2H-pyrazol-3-yl]-3-[4-fluoro-3-(pyrazin-2-yloxymethyl)-phenyl]-urea] | < 2
OCCNc1cnc(OCc2c(Cl)cccc2Cl)cn1 [Compound 158, 2-[5-(2,6-Dichloro-benzyloxy)-pyrazin-2-ylamino]-ethanol] | < 200
C[S+]([O-])c1nnc(NC(=O)Nc2ccc(F)c(COc3cnccn3)c2)s1 (centres unmarked) [Compound 159, 1-[4-Fluoro-3-(pyrazin-2-yloxymethyl)-phenyl]-3-(5-methanesulfinyl-[1,3,4]thiadiazol-2-yl)-urea] | < 1000
CC(C)(C)c1cc(NC(=O)Nc2ccc(F)c(COc3cnccn3)c2)n(-c2ccncc2)n1 [Compound 160, 1-(5-tert-Butyl-2-pyridin-4-yl-2H-pyrazol-3-yl)-3-[4-fluoro-3-(pyrazin-2-yloxymethyl)-phenyl]-urea] | < 2
O=C(Nc1ccc(F)c(COc2cnccn2)c1)Nc1cc(C2CCCO2)nn1-c1ccc(F)cc1 (centres unmarked) [Compound 161, 1-[2-(4-Fluoro-phenyl)-5-(tetrahydro-furan-2-yl)-2H-pyrazol-3-yl]-3-[4-fluoro-3-(pyrazin-2-yloxymethyl)-phenyl]-urea] | < 2
CN1CCCC(CNC(=O)c2cnc(OCc3c(Cl)cccc3Cl)cn2)C1 (centres unmarked) [Compound 162] | < 1000
CC(C)(C)c1cc(NC(=O)Nc2ccc(F)c(COc3cnccn3)c2)n(-c2ccc(S(C)(=O)=O)cc2)n1 [Compound 163, 1-[5-tert-Butyl-2-(4-methanesulfonyl-phenyl)-2H-pyrazol-3-yl]-3-[4-fluoro-3-(pyrazin-2-yloxymethyl)-phenyl]-urea] | < 2
